Results as given in patent US10206394B2, “Herbicidal compounds” (Syngenta Participations AG, priority 2014, dated 2019).
Where two headings read alike, the source gives them in different places.

Columns and labels:
Experiment in all cases: Glasshouse assay for herbicidal activity (pre- and post-emergence), percentage phytotoxicity
Type in all cases: in vivo
[1] = tested on: Alopecurus myosuroides (ALOMY); conditions: Alopecurus myosuroides
Method in brief: (§1)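 Damage was rated visually as percent phytotoxicity, 100% meaning total kill, 20 days after pre-emergence application (made one day post-sowing) or 15 days after post-emergence application (made about 12 days post-sowing). Plants were grown under 16 h light, 65% humidity, warm species 24/18° C, cool 20/16° C.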

[2] = tested on: Avena fatua (AVEFA); conditions: Avena fatua
Method in brief: as §1

[3] = tested on: Echinochloa crus-galli (ECHCG); conditions: Echinochloa crus-galli
Method in brief: as §1

[4] = tested on: Lolium perenne (LOLPE); conditions: Lolium perenne
Method in brief: as §1

[5] = post-emergence, 360 h, Rate 250 g/ha, post-emergence, assessed visually 15 DAA, 100%=total damage, 0%=no damage, read-out: Post-emergence herbicidal activity (percentage phytotoxicity) ALOMY POST
[6] = pre-emergence, 480 h, Rate 250 g/ha, pre-emergence, assessed visually 20 DAA, 100%=total damage, 0%=no damage, read-out: Pre-emergence herbicidal activity (percentage phytotoxicity) ALOMY PRE
[7] = post-emergence, 360 h, Rate 250 g/ha, post-emergence, assessed visually 15 DAA, 100%=total damage, 0%=no damage, read-out: Post-emergence herbicidal activity (percentage phytotoxicity) AVEFA POST
[8] = pre-emergence, 480 h, Rate 250 g/ha, pre-emergence, assessed visually 20 DAA, 100%=total damage, 0%=no damage, read-out: Pre-emergence herbicidal activity (percentage phytotoxicity) AVEFA PRE
[9] = post-emergence, 360 h, Rate 250 g/ha, post-emergence, assessed visually 15 DAA, 100%=total damage, 0%=no damage, read-out: Post-emergence herbicidal activity (percentage phytotoxicity) ECHCG POST
[10] = pre-emergence, 480 h, Rate 250 g/ha, pre-emergence, assessed visually 20 DAA, 100%=total damage, 0%=no damage, read-out: Pre-emergence herbicidal activity (percentage phytotoxicity) ECHCG PRE
[11] = post-emergence, 360 h, Rate 250 g/ha, post-emergence, assessed visually 15 DAA, 100%=total damage, 0%=no damage, read-out: Post-emergence herbicidal activity (percentage phytotoxicity) LOLPE POST
[12] = pre-emergence, 480 h, Rate 250 g/ha, pre-emergence, assessed visually 20 DAA, 100%=total damage, 0%=no damage, read-out: Pre-emergence herbicidal activity (percentage phytotoxicity) LOLPE PRE
[13] = post-emergence, 360 h, 250 g/ha, post-emergence, 15 DAA, visual assessment (100%=total damage, 0%=no damage), read-out: Post-emergence herbicidal activity (percentage phytotoxicity) ALOMY POST
[14] = pre-emergence, 480 h, 250 g/ha, pre-emergence, 20 DAA, visual assessment (100%=total damage, 0%=no damage), read-out: Pre-emergence herbicidal activity (percentage phytotoxicity) ALOMY PRE
[15] = post-emergence, 360 h, 250 g/ha, post-emergence, 15 DAA, visual assessment (100%=total damage, 0%=no damage), read-out: Post-emergence herbicidal activity (percentage phytotoxicity) AVEFA POST
[16] = pre-emergence, 480 h, 250 g/ha, pre-emergence, 20 DAA, visual assessment (100%=total damage, 0%=no damage), read-out: Pre-emergence herbicidal activity (percentage phytotoxicity) AVEFA PRE
[17] = post-emergence, 360 h, 250 g/ha, post-emergence, 15 DAA, visual assessment (100%=total damage, 0%=no damage), read-out: Post-emergence herbicidal activity (percentage phytotoxicity) ECHCG POST
[18] = pre-emergence, 480 h, 250 g/ha, pre-emergence, 20 DAA, visual assessment (100%=total damage, 0%=no damage), read-out: Pre-emergence herbicidal activity (percentage phytotoxicity) ECHCG PRE
[19] = post-emergence, 360 h, 250 g/ha, post-emergence, 15 DAA, visual assessment (100%=total damage, 0%=no damage), read-out: Post-emergence herbicidal activity (percentage phytotoxicity) LOLPE POST
[20] = pre-emergence, 480 h, 250 g/ha, pre-emergence, 20 DAA, visual assessment (100%=total damage, 0%=no damage), read-out: Pre-emergence herbicidal activity (percentage phytotoxicity) LOLPE PRE
[21] = post-emergence, 360 h, POST-emergence, rate 250 g/ha, visual score 15 DAA (100%=total damage, 0%=no damage), read-out: Post-emergence herbicidal activity (percentage phytotoxicity) ALOMY POST
[22] = pre-emergence, 480 h, PRE-emergence, rate 250 g/ha, visual score 20 DAA (100%=total damage, 0%=no damage), read-out: Pre-emergence herbicidal activity (percentage phytotoxicity) ALOMY PRE
[23] = post-emergence, 360 h, POST-emergence, rate 250 g/ha, visual score 15 DAA (100%=total damage, 0%=no damage), read-out: Post-emergence herbicidal activity (percentage phytotoxicity) AVEFA POST
[24] = pre-emergence, 480 h, PRE-emergence, rate 250 g/ha, visual score 20 DAA (100%=total damage, 0%=no damage), read-out: Pre-emergence herbicidal activity (percentage phytotoxicity) AVEFA PRE
[25] = post-emergence, 360 h, POST-emergence, rate 250 g/ha, visual score 15 DAA (100%=total damage, 0%=no damage), read-out: Post-emergence herbicidal activity (percentage phytotoxicity) ECHCG POST
[26] = pre-emergence, 480 h, PRE-emergence, rate 250 g/ha, visual score 20 DAA (100%=total damage, 0%=no damage), read-out: Pre-emergence herbicidal activity (percentage phytotoxicity) ECHCG PRE
[27] = post-emergence, 360 h, POST-emergence, rate 250 g/ha, visual score 15 DAA (100%=total damage, 0%=no damage), read-out: Post-emergence herbicidal activity (percentage phytotoxicity) LOLPE POST
[28] = pre-emergence, 480 h, PRE-emergence, rate 250 g/ha, visual score 20 DAA (100%=total damage, 0%=no damage), read-out: Pre-emergence herbicidal activity (percentage phytotoxicity) LOLPE PRE

With `Cc1cc(C)c(C2C(=O)CC(C(C)C(=O)NCc3ncccc3Cl)C2=O)c(C)c1` (stereo not shown) [Compound A167] the pest or weed control at 250 g/ha [1, 5] was 20%, the pest or weed control at 250 g/ha [1, 6] was 20% and the pest or weed control at 250 g/ha [2, 7] was 70%. It also gave a pest or weed control at 250 g/ha [2, 8] of 10%, a pest or weed control at 250 g/ha [3, 9] of 80% and a pest or weed control at 250 g/ha [3, 10] of 80%. It also gave a pest or weed control at 250 g/ha [4, 11] of 60% and a pest or weed control at 250 g/ha [4, 12] of 80%.

For `Cc1cc(C)c(C2C(=O)CC(CC(=O)NC(C)C(C)(C)C)C2=O)c(C)c1` (stereo not shown) [Compound B26], the pest or weed control at 250 g/ha [1, 13] was 70%, the pest or weed control at 250 g/ha [1, 14] was 60% and the pest or weed control at 250 g/ha [2, 15] was 60%. The pest or weed control at 250 g/ha [2, 16] was 20%, the pest or weed control at 250 g/ha [3, 17] was 60% and the pest or weed control at 250 g/ha [3, 18] was 70%. It also gave a pest or weed control at 250 g/ha [4, 19] of 60% and a pest or weed control at 250 g/ha [4, 20] of 70%.

Compound `CCc1cc(-n2cc(Cl)cn2)cc(C)c1C1C(=O)CC(CC(=O)NCc2ccc(C#N)cc2)C1=O` (stereo not shown) [Compound B234] has a pest or weed control at 250 g/ha [1, 21] of 90%, a pest or weed control at 250 g/ha [1, 22] of 60% and a pest or weed control at 250 g/ha [2, 23] of 100%. For the same compound, the pest or weed control at 250 g/ha [2, 24] was 80%, the pest or weed control at 250 g/ha [3, 25] was 90% and the pest or weed control at 250 g/ha [3, 26] was 70%. It also gave a pest or weed control at 250 g/ha [4, 27] of 80% and a pest or weed control at 250 g/ha [4, 28] of 70%.

In the case of `Cc1cc(-c2ncc(F)cn2)cc(C)c1C1C(=O)CC(CC(=O)NCc2ccc(C(F)(F)F)nc2)C1=O` (stereo not shown) [Compound A136], the pest or weed control at 250 g/ha [1, 5] is reported as 100%, the pest or weed control at 250 g/ha [1, 6] is reported as 80% and the pest or weed control at 250 g/ha [2, 7] is reported as 100%. It also gave a pest or weed control at 250 g/ha [2, 8] of 90%, a pest or weed control at 250 g/ha [3, 9] of 100% and a pest or weed control at 250 g/ha [3, 10] of 90%. It also gave a pest or weed control at 250 g/ha [4, 11] of 90% and a pest or weed control at 250 g/ha [4, 12] of 80%.

In the case of `C/C=C/c1cc(C)c(C2C(=O)CC(CC(=O)NC(C)(C)C)C2=O)c(C)c1` (stereo not shown) [Compound B173], the pest or weed control at 250 g/ha [1, 21] is reported as 90%, the pest or weed control at 250 g/ha [1, 22] is reported as 90% and the pest or weed control at 250 g/ha [2, 23] is reported as 80%. For the same compound, the pest or weed control at 250 g/ha [2, 24] was 60%, the pest or weed control at 250 g/ha [3, 25] was 90% and the pest or weed control at 250 g/ha [3, 26] was 90%. The pest or weed control at 250 g/ha [4, 27] was 80% and the pest or weed control at 250 g/ha [4, 28] was 90%.

With `CONC(=O)CC1CC(=O)C(c2c(C)cc(C)cc2C)C1=O` (stereo not shown) [Compound B96] the pest or weed control at 250 g/ha [1, 13] was 20%, the pest or weed control at 250 g/ha [1, 14] was 0% and the pest or weed control at 250 g/ha [2, 15] was 60%. It also gave a pest or weed control at 250 g/ha [2, 16] of 0%, a pest or weed control at 250 g/ha [3, 17] of 90% and a pest or weed control at 250 g/ha [3, 18] of 30%. It also gave a pest or weed control at 250 g/ha [4, 19] of 80% and a pest or weed control at 250 g/ha [4, 20] of 80%.

Work on `C#CC(C)(C)NC(=O)CC1CC(=O)C(c2c(C)cc(-c3ccc(Br)cn3)cc2C)C1=O` (stereo not shown) [Compound B297] yielded a pest or weed control at 250 g/ha [1, 21] of 100%, a pest or weed control at 250 g/ha [1, 22] of 90% and a pest or weed control at 250 g/ha [2, 23] of 100%. For the same compound, the pest or weed control at 250 g/ha [2, 24] was 90%, the pest or weed control at 250 g/ha [3, 25] was 100% and the pest or weed control at 250 g/ha [3, 26] was 100%. It also gave a pest or weed control at 250 g/ha [4, 27] of 100% and a pest or weed control at 250 g/ha [4, 28] of 90%.

Compound `COc1ccc(C(=O)OC2=C(c3c(C)cc(-c4ncc(Cl)cn4)cc3C)C(=O)C(CC(=O)NC(C)(C)C)C2)cc1` (stereo not shown) [Compound P1, [4-[2-(tert-butylamino)-2-oxo-ethyl]-2-[4-(5-chloropyrimidin-2-yl)-2,6-dimethyl-phenyl]-3-oxo-cyclopenten-1-yl] 4-methoxybenzoate] has a pest or weed control at 250 g/ha ([1]; post-emergence, 360 h, post-emergence, 250 g/ha, 15 DAA, visual score (100%=total damage; 0%=no damage), read-out: ALOMY POST herbicidal activity (percentage phytotoxicity)) of 100%, a pest or weed control at 250 g/ha ([1]; pre-emergence, 480 h, pre-emergence, 250 g/ha, 20 DAA, visual score (100%=total damage; 0%=no damage), read-out: ALOMY PRE herbicidal activity (percentage phytotoxicity)) of 100% and a pest or weed control at 250 g/ha ([2]; post-emergence, 360 h, post-emergence, 250 g/ha, 15 DAA, visual score (100%=total damage; 0%=no damage), read-out: AVEFA POST herbicidal activity (percentage phytotoxicity)) of 100%. For the same compound, the pest or weed control at 250 g/ha ([2]; pre-emergence, 480 h, pre-emergence, 250 g/ha, 20 DAA, visual score (100%=total damage; 0%=no damage), read-out: AVEFA PRE herbicidal activity (percentage phytotoxicity)) was 100%, the pest or weed control at 250 g/ha ([3]; post-emergence, 360 h, post-emergence, 250 g/ha, 15 DAA, visual score (100%=total damage; 0%=no damage), read-out: ECHCG POST herbicidal activity (percentage phytotoxicity)) was 100% and the pest or weed control at 250 g/ha ([3]; pre-emergence, 480 h, pre-emergence, 250 g/ha, 20 DAA, visual score (100%=total damage; 0%=no damage), read-out: ECHCG PRE herbicidal activity (percentage phytotoxicity)) was 100%. It also gave a pest or weed control at 250 g/ha ([4]; post-emergence, 360 h, post-emergence, 250 g/ha, 15 DAA, visual score (100%=total damage; 0%=no damage), read-out: LOLPE POST herbicidal activity (percentage phytotoxicity)) of 100% and a pest or weed control at 250 g/ha ([4]; pre-emergence, 480 h, pre-emergence, 250 g/ha, 20 DAA, visual score (100%=total damage; 0%=no damage), read-out: LOLPE PRE herbicidal activity (percentage phytotoxicity)) of 100%.
